Ten molecules from ChEMBL document CHEMBL6127130, “Pullenvalenes E-H: Triterpenyl-Aminoglycosides from an Australian Soil-Derived Fungus, Clonostachys sp” (J Nat Prod, 2024) can be followed below.

Molecules are shown by their SMILES.

The subject of assay [1] is Staphylococcus aureus. The experiment in a line: Antibacterial activity against Staphylococcus aureus ATCC 25923 assessed as inhibition of bacterial growth incubated for 24 hrs by serial dilution based spectrophotometric analysis. The format is functional, organism-based. As to conditions: ATCC 25923, 24 h.
For assay [2], the system named is NCI-H460. Nature of the assay: Cytotoxicity against human NCI-H460 cells assessed as inhibition of cell growth incubated for 24 hrs by MTT assay. Type of assay: functional, cell-based. As to conditions: NCI-H460, 24 h. (Formazan colour is commonly taken as a measure of viable cells.)
The test system of assay [3] is SW-620. Nature of the assay: Cytotoxicity against human SW620 cells assessed as inhibition of cell growth incubated for 24 hrs by MTT assay. Type of assay: functional, cell-based. As to conditions: SW-620, 24 h.
Assay [4] deals with Escherichia coli. The experiment in a line: Antibacterial activity against Escherichia coli ATCC 11775 assessed as inhibition of bacterial growth incubated for 24 hrs by serial dilution based spectrophotometric analysis. Type of assay: functional, organism-based. As to conditions: ATCC 11775, 24 h.
In assay [5] the test system is Candida albicans. The experiment in a line: Antifungal activity against Candida albicans ATCC 10231 assessed as inhibition of fungal growth incubated for 48 hrs by serial dilution based spectrophotometric analysis. The format is functional, organism-based. As to conditions: ATCC 10231, 48 h.
The nature of assay [6]: Inhibition of RANKL-induced osteoclastogenesis in mouse RAW264 cells assessed as reduction in multinucleated TRAP positive osteoclasts incubated for 4 days by TRAP staining based light microscopic analysis. Particulars: raw264.7. The format is functional, cell-based.

As to `COC[C@H]1O[C@H](O[C@@]2(C)CC[C@@H](C(C)(C)O)O[C@@H]2CC[C@H](C)[C@@]2(C)CCC3=C2CC[C@@H]2OC(C)(C)[C@H](O[C@H]4O[C@H](COC)[C@@H](O)[C@H](O)[C@H]4NC(C)=O)[C@@H](O)C[C@@]32C)[C@H](NC(C)=O)[C@@H](O)[C@@H]1O`, the IC50 in assay [1], in assay [2], in assay [3], in assay [4] and in assay [5] was over 30 µM in each case.
For `COC[C@H]1O[C@H](O[C@@H]2CC[C@@]3(C)C4=CC[C@](C)([C@@H](C)CC[C@H]5O[C@H](C(C)(C)O)CC[C@]5(C)O)[C@H]4CC[C@@H]3OC2(C)C)[C@H](NC(C)=O)[C@@H](O)[C@@H]1O`, the half-inhibitory concentration (IC50) in assay [1], in assay [2], in assay [3], in assay [4] and in assay [5] was over 30 µM each time.
For the molecule `COC[C@H]1O[C@H](O[C@@H]2CC[C@@]3(C)C4=CC[C@](C)([C@@H](C)CC[C@H]5O[C@H](C(C)(C)O)CC[C@]5(C)O[C@H]5O[C@H](COC)[C@@H](O)[C@H](O)[C@H]5NC(C)=O)[C@H]4CC[C@@H]3OC2(C)C)[C@H](NC(C)=O)[C@@H](O)[C@@H]1O`, the half-inhibitory concentration (IC50) in assay [1], in assay [2], in assay [3], in assay [4] and in assay [5] was over 30 µM in each case.
As to `CC(C)[C@@]1(O)CC[C@@]2(C)C[C@](O)([C@@H]3CC[C@@H]4[C@]3(C)CC[C@H]3OC(C)(C)[C@H](O)C(=O)[C@@H](O)[C@]43C)CC[C@H]21`, the IC50 – broadly, the concentration at which inhibition is half-maximal – in assay [6] stood at 12.8 µM.
Regarding `CC(=O)N[C@H]1[C@@H](O[C@@H]2CC[C@@]3(C)C4=CC[C@](C)([C@@H](C)CC[C@H]5O[C@H](C(C)(C)O)CC[C@]5(C)O)[C@H]4CC[C@@H]3OC2(C)C)O[C@H](CO)[C@@H](O)[C@@H]1O`, the IC50 in assay [1], in assay [2], in assay [3], in assay [4] and in assay [5] was over 30 µM each time.
With `COC[C@H]1O[C@H](O[C@@]2(C)CC[C@@H](C(C)(C)O)O[C@@H]2CC[C@H](C)[C@@]2(C)CC=C3[C@@H]2CC[C@@H]2OC(C)(C)[C@H](O[C@H]4O[C@H](CO)[C@@H](O)[C@H](O)[C@H]4NC(C)=O)CC[C@@]32C)[C@H](NC(C)=O)[C@@H](O)[C@@H]1O`, the half-inhibitory concentration (IC50) in assay [1], in assay [2], in assay [3], in assay [4] and in assay [5] was over 30 µM throughout.
Take `CC(C)[C@@]1(O)CC[C@@]2(C)C[C@](O)([C@@H]3CC[C@@H]4[C@]3(C)CC[C@H]3OC(C)(C)[C@H](O)C(=O)[C@H](O)[C@]43C)CC[C@H]21`: the half-inhibitory concentration (IC50) in assay [6] is 32.8 µM.
As to `COC[C@H]1O[C@H](O[C@@H]2[C@@H](O)C[C@@]3(C)C4=CC[C@](C)([C@@H](C)CC[C@H]5O[C@H](C(C)(C)O)CC[C@]5(C)O)[C@H]4CC[C@@H]3OC2(C)C)[C@H](NC(C)=O)[C@@H](O)[C@@H]1O`, the 50% inhibitory concentration (IC50) in assay [1], in assay [2], in assay [3], in assay [4] and in assay [5] was over 30 µM throughout.
With `COC[C@H]1O[C@H](O[C@@H]2CC[C@@]3(C)C4=C(CC[C@@H]3OC2(C)C)[C@@](C)([C@@H](C)CC[C@H]2O[C@H](C(C)(C)O)CC[C@]2(C)O[C@H]2O[C@H](COC)[C@@H](O)[C@H](O)[C@H]2NC(C)=O)CC4)[C@H](NC(C)=O)[C@@H](O)[C@@H]1O`, the concentration for half-maximal inhibition (IC50) in assay [1], in assay [2], in assay [3], in assay [4] and in assay [5] was over 30 µM in each case.
For `COC[C@H]1O[C@H](O[C@@]2(C)CC[C@@H](C(C)(C)O)O[C@@H]2CC[C@H](C)[C@@]2(C)CC=C3[C@@H]2CC[C@@H]2OC(C)(C)[C@H](O[C@H]4O[C@H](COC)[C@@H](O)[C@H](O)[C@H]4NC(C)=O)[C@@H](O)C[C@@]32C)[C@H](NC(C)=O)[C@@H](O)[C@@H]1O`, the IC50 in assay [1], in assay [2], in assay [3], in assay [4] and in assay [5] was over 30 µM throughout.
